From PMC6934184, “Selective DNA-PKcs inhibition extends the therapeutic index of localized radiotherapy and chemotherapy” (The Journal of Clinical Investigation, 2019)

Molecular target: T1, MAP3K9 (MLK1) (Homo sapiens, UniProt P80192)
T1 construct: purchased Thermo Fisher Scientific (Life Technologies) SelectScreen
Experiment: SelectScreen Z'LYTE
Format: biochemical
Outline: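 Percent values come from Thermo SelectScreen profiling of NU5455, combining activity and binding assays. CSF1R was run in Z'LYTE format at Km app ATP, and CAMK1 in Adapta format with ATP listed at 10.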

T1 sequence (P80192 whole entry): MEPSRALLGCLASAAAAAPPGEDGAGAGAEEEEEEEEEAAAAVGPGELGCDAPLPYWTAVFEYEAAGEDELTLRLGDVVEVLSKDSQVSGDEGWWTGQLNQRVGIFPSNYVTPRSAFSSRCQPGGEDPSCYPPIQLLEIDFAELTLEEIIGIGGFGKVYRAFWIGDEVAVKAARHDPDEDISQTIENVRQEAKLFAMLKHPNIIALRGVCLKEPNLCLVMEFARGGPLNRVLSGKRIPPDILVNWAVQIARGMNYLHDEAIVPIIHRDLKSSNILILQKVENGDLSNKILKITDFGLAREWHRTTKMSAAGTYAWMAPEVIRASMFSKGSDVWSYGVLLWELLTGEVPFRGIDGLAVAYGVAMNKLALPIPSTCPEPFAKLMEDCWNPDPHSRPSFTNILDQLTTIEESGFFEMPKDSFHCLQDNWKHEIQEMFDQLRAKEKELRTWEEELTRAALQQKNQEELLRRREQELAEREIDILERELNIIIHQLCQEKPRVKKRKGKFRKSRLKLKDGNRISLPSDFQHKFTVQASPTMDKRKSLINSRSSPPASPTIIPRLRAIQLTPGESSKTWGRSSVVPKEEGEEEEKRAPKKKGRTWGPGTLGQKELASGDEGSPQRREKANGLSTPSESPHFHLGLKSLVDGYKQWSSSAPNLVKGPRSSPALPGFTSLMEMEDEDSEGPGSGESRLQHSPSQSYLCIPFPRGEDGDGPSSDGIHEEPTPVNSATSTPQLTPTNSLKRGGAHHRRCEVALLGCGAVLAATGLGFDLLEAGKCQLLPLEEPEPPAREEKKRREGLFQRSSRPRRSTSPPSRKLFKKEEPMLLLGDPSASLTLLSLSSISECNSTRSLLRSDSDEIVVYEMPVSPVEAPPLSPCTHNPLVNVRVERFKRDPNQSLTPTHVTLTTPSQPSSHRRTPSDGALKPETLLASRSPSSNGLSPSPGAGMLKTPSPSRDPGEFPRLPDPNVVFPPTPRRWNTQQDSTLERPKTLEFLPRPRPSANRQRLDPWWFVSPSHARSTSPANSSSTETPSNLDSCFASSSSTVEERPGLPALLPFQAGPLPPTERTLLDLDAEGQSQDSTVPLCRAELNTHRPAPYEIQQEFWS

## CN(C(=O)CN1CCOCC1)c1ccc2sc3c(-c4cccc5c(=O)cc(N6CC7CCC(C6)O7)oc45)cccc3c2c1 [NU5455]
  inhibition at 1 µM: -0.5%
